System: 648629-189-R-J1-PDC spheroids with HUVEC/MSC, viability
Assay: Anticancer human tumor 648629-189-R-J1-PDC patient-derived bladder carcinoma cell line growth inhibition [PI3K]
Settings: for IC50: curve of first compound; for viability, T/C: stronger effect = lower value
In short: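 Targeted small molecules plus PI3K inhibitors, half-log dose series from Cmax (default top 10 microM), were applied to heterotypic spheroids of cancer cells with HUVEC and MSCs. Viability indicated growth inhibition.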

[1] = second compound 0.0316 µM, first compound 0.0316 µM
[2] = second compound 0.0316 µM, first compound 0.1 µM
[3] = second compound 0.1 µM, first compound 0.0316 µM
[4] = second compound 0.1 µM, first compound 0.1 µM
[5] = second compound 0.316 µM, first compound 0.0316 µM
[6] = second compound 0.316 µM, first compound 0.1 µM
[7] = second compound 1 µM, first compound 0.0316 µM
[8] = second compound 1 µM, first compound 0.1 µM
[9] = second compound 0.0316 µM, first compound 0.316 µM
[10] = second compound 0.0316 µM, first compound 1 µM
[11] = second compound 0.0316 µM, first compound 3.16 µM
[12] = second compound 0.0316 µM, first compound 10 µM
[13] = second compound 0.1 µM, first compound 0.316 µM
[14] = second compound 0.1 µM, first compound 1 µM
[15] = second compound 0.1 µM, first compound 3.16 µM
[16] = second compound 0.1 µM, first compound 10 µM
[17] = second compound 0.316 µM, first compound 0.316 µM
[18] = second compound 0.316 µM, first compound 1 µM
[19] = second compound 0.316 µM, first compound 3.16 µM
[20] = second compound 0.316 µM, first compound 10 µM
[21] = second compound 1 µM, first compound 0.316 µM
[22] = second compound 1 µM, first compound 1 µM
[23] = second compound 1 µM, first compound 3.16 µM
[24] = second compound 1 µM, first compound 10 µM
[25] = second compound 3.16 µM, first compound 0.0316 µM
[26] = second compound 3.16 µM, first compound 0.1 µM
[27] = second compound 3.16 µM, first compound 0.316 µM
[28] = second compound 3.16 µM, first compound 1 µM
[29] = second compound 3.16 µM, first compound 3.16 µM
[30] = second compound 3.16 µM, first compound 10 µM
[31] = second compound 10 µM, first compound 0.0316 µM
[32] = second compound 10 µM, first compound 0.1 µM
[33] = second compound 10 µM, first compound 0.316 µM
[34] = second compound 10 µM, first compound 1 µM
[35] = second compound 10 µM, first compound 3.16 µM
[36] = second compound 10 µM, first compound 10 µM
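Also: spheroids exposed to agents for seven days before reading.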
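For viability, T/C in this document: percent of vehicle control luminescence where 100% = DMSO treated spheroids.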

CC(C)n1nc(-c2ccc3oc(N)nc3c2)c2c(N)ncnc21 + CC(Nc1ccc2c(c1)OCCn1cc(N3C(=O)OCC3C(F)F)nc1-2)C(N)=O
IC50 (second compound 0.00316 µM): 61.3 nM
IC50 (second compound 0.01 µM): 59.5 nM
IC50 (second compound 0.0316 µM): 59 nM
IC50 (second compound 0.1 µM): 53.9 nM
IC50 (second compound 0.316 µM): 31.8 nM
IC50 (second compound 1 µM): 12.5 nM
viability, T/C (second compound 0.00316 µM, first compound 0.000316 µM): 119%
viability, T/C (second compound 0.00316 µM, first compound 0.001 µM): 100%
viability, T/C (second compound 0.00316 µM, first compound 0.00316 µM): 94.7%
viability, T/C (second compound 0.00316 µM, first compound 0.01 µM): 90%
viability, T/C (second compound 0.00316 µM, first compound 0.0316 µM): 68.8%
viability, T/C (second compound 0.00316 µM, first compound 0.1 µM): 36.2%
viability, T/C (second compound 0.01 µM, first compound 0.000316 µM): 102%
viability, T/C (second compound 0.01 µM, first compound 0.001 µM): 92.2%
viability, T/C (second compound 0.01 µM, first compound 0.00316 µM): 96.3%
viability, T/C (second compound 0.01 µM, first compound 0.01 µM): 95.5%
viability, T/C (second compound 0.01 µM, first compound 0.0316 µM): 74.3%
viability, T/C (second compound 0.01 µM, first compound 0.1 µM): 30%
viability, T/C (second compound 0.0316 µM, first compound 0.000316 µM): 119%
viability, T/C (second compound 0.0316 µM, first compound 0.001 µM): 103%
viability, T/C (second compound 0.0316 µM, first compound 0.00316 µM): 98.3%
viability, T/C (second compound 0.0316 µM, first compound 0.01 µM): 80%
viability, T/C [1]: 75.9%
viability, T/C [2]: 32.6%
viability, T/C (second compound 0.1 µM, first compound 0.000316 µM): 89.1%
viability, T/C (second compound 0.1 µM, first compound 0.001 µM): 94.9%
viability, T/C (second compound 0.1 µM, first compound 0.00316 µM): 80.3%
viability, T/C (second compound 0.1 µM, first compound 0.01 µM): 82.9%
viability, T/C [3]: 72.5%
viability, T/C [4]: 25.3%
viability, T/C (second compound 0.316 µM, first compound 0.000316 µM): 81.6%
viability, T/C (second compound 0.316 µM, first compound 0.001 µM): 73.3%
viability, T/C (second compound 0.316 µM, first compound 0.00316 µM): 78.6%
viability, T/C (second compound 0.316 µM, first compound 0.01 µM): 74.6%
viability, T/C [5]: 50.2%
viability, T/C [6]: 24.8%
viability, T/C (second compound 1 µM, first compound 0.000316 µM): 65.6%
viability, T/C (second compound 1 µM, first compound 0.001 µM): 63.1%
viability, T/C (second compound 1 µM, first compound 0.00316 µM): 67.2%
viability, T/C (second compound 1 µM, first compound 0.01 µM): 48%
viability, T/C [7]: 39.8%
viability, T/C [8]: 17.9%

CC(Cn1ccc(-c2ccc(C#N)c(Cl)c2)n1)NC(=O)c1cc(C(C)O)[nH]n1 (stereo unspecified) + Cc1nc(NC(=O)N2CCCC2C(N)=O)sc1-c1ccnc(C(C)(C)C(F)(F)F)c1
IC50 (second compound 0.0316 µM): > 10000 nM
IC50 (second compound 0.1 µM): > 10000 nM
IC50 (second compound 0.316 µM): > 10000 nM
IC50 (second compound 1 µM): > 10000 nM
IC50 (second compound 3.16 µM): > 10000 nM
IC50 (second compound 10 µM): < 31.6 nM
viability, T/C [1]: 86.5%
viability, T/C [2]: 95.8%
viability, T/C [9]: 95.9%
viability, T/C [10]: 87.5%
viability, T/C [11]: 82.8%
viability, T/C [12]: 67.1%
viability, T/C [3]: 92.4%
viability, T/C [4]: 91.8%
viability, T/C [13]: 87.7%
viability, T/C [14]: 89.6%
viability, T/C [15]: 77.7%
viability, T/C [16]: 66.2%
viability, T/C [5]: 91.5%
viability, T/C [6]: 84.6%
viability, T/C [17]: 87.3%
viability, T/C [18]: 81.5%
viability, T/C [19]: 78.1%
viability, T/C [20]: 68.2%
viability, T/C [7]: 70.8%
viability, T/C [8]: 74.2%
viability, T/C [21]: 68.1%
viability, T/C [22]: 69.9%
viability, T/C [23]: 63.9%
viability, T/C [24]: 62.3%
viability, T/C [25]: 53.1%
viability, T/C [26]: 54.6%
viability, T/C [27]: 47.4%
viability, T/C [28]: 51.5%
viability, T/C [29]: 57.1%
viability, T/C [30]: 52.6%
viability, T/C [31]: 38.5%
viability, T/C [32]: 38.6%
viability, T/C [33]: 35.4%
viability, T/C [34]: 40.4%
viability, T/C [35]: 36.9%
viability, T/C [36]: 37.4%

C[C@@H](NC(=O)c1ncnc(N)c1Cl)c1ncc(C(=O)Nc2cc(C(F)(F)F)c(Cl)cn2)s1 + Cc1nc(NC(=O)N2CCCC2C(N)=O)sc1-c1ccnc(C(C)(C)C(F)(F)F)c1
IC50 (second compound 0.0316 µM): > 10000 nM
IC50 (second compound 0.1 µM): > 10000 nM
IC50 (second compound 0.316 µM): > 10000 nM
IC50 (second compound 1 µM): > 10000 nM
IC50 (second compound 3.16 µM): > 10000 nM
IC50 (second compound 10 µM): < 31.6 nM
viability, T/C [1]: 101%
viability, T/C [2]: 93.8%
viability, T/C [9]: 98.8%
viability, T/C [10]: 116%
viability, T/C [11]: 107%
viability, T/C [12]: 106%
viability, T/C [3]: 107%
viability, T/C [4]: 92.4%
viability, T/C [13]: 95.4%
viability, T/C [14]: 108%
viability, T/C [15]: 120%
viability, T/C [16]: 118%
viability, T/C [5]: 81.2%
viability, T/C [6]: 101%
viability, T/C [17]: 83.4%
viability, T/C [18]: 93%
viability, T/C [19]: 90.9%
viability, T/C [20]: 94.5%
viability, T/C [7]: 74%
viability, T/C [8]: 73.2%
viability, T/C [21]: 78%
viability, T/C [22]: 77.9%
viability, T/C [23]: 88.7%
viability, T/C [24]: 82.6%
viability, T/C [25]: 53.3%
viability, T/C [26]: 56.6%
viability, T/C [27]: 59%
viability, T/C [28]: 55%
viability, T/C [29]: 66%
viability, T/C [30]: 54.7%
viability, T/C [31]: 40.2%
viability, T/C [32]: 35.4%
viability, T/C [33]: 39.2%
viability, T/C [34]: 36%
viability, T/C [35]: 36.6%
viability, T/C [36]: 42.7%

From PubChem BioAssay AID1963974 (Molecular Pharmacology Branch, DTP, NCI, 2024)
